Experiments:
[1] = tested on: human tumor cells including colon, prostate, cervix, lung, melanoma, lymphoma, and leukemia; assay: In vitro proliferation of human tumor cells; assay type: cell-based
[2] = tested on: human colon, lung, and cervical carcinoma xenograft; assay: Human colon, lung and cervical carcinoma xenograft models, BA administration; assay type: in vivo, nude and SCID mice
[3] = tested on: human small cell lung cancer SW-2 cells; assay: Subcutaneous xenograft model of SCLC, BA plus topotecan; assay type: in vivo, SCID mice; settings: SW-2 xenograft; for tumor growth delay: topotecan i.p. 0.5, 1 or 2 mg/kg, BA 25 mg/kg/week continuous infusion, BA value in 3 out of 6 animals
Method: The anti-tumor effect of a combination of BA and topotecan, one of the approved drugs for the treatment of small cell lung cancer (SCLC) in humans, is evaluated in an established subcutaneous xenograft model of SCLC. SCID mice (24 animals) are inoculated with human small cell lung cancer SW-2 cells (8×10^6 cells/animal) injected subcutaneously into the right flank of the mice. When the tumors reach about 80 mm^3 in size, the mice are randomly divided into four groups (6 animals per group). The first group of mice is treated with topotecan administered i.p. […] Alzet model osmotic pumps are implanted on days 1, 15, and 29. The pumps are pre-warmed for ˜1 hour at 37° C., and then implanted subcutaneously (s.c.) in the left flanks of isofluoraneanesthetized mice. The third group of mice receives a combination of topotecan and BA, using the same doses and schedules as in groups 1 and 2. A control group of animals receives phosphate-buffered saline (PBS) using the same schedule as the animals in group 2. Tumor growth is monitored by measuring tumor size twice per week. Tumor size is calculated using the formula: length×width×height×(½).

Structure (SMILES) | inhibition of proliferation of human tumor cells [1] | survival rate of animals ([2]; drug given daily or twice weekly) | tumor growth ([2]; once-daily or twice-weekly administration of BA) | complete tumor regression, number of animals ([3]; out of 6 treated animals per group) [animals] | tumor growth delay [3] [days]
NC(=O)c1ccc(I)c([N+](=O)[O-])c1 [BA, 4-iodo-3-nitrobenzamide] | inhibits the proliferation | positively affects the survival rate | inhibits tumor growth | 3 | 34
CC[C@@]1(O)C(=O)OCc2c1cc1n(c2=O)Cc2cc3c(CN(C)C)c(O)ccc3nc2-1 [topotecan, reference compound] | – | – | – | – | 12

Reference: patent publication US20090149397A1, “TREATMENT OF CANCER WITH COMBINATIONS OF TOPOISOMERASE INHIBITORS AND PARP INHIBITORS” (priority 2007, published 2009)
